From ChEMBL document CHEMBL4837206, “Synthesis and biological evaluation of novel isoxazole-piperazine hybrids as potential anti-cancer agents with inhibitory effect on liver cancer stem cells” (Eur J Med Chem, 2021)
Activity calls are given as the source filed them. The calls are words filed in the database; no cut-off is given here.

Legend:
Mahlavu [1] = assay: Antiproliferative activity against human Mahlavu cells assessed as reduction in cell viability measured after 72 hrs by SRB assay; type: functional, cell-based
MCF7 = assay: Antiproliferative activity against human MCF7 cells assessed as reduction in cell viability measured after 72 hrs by SRB assay; type: functional, cell-based; settings: MCF7, 72 h
Huh-7 [2] = assay: Antiproliferative activity against human Huh-7 cells assessed as reduction in cell viability measured after 72 hrs by SRB assay; type: functional, cell-based; settings: Huh-7, 72 h
Mahlavu [3] = assay: Upregulation of OCT4 level in human Mahlavu cells at 10 uM measured after 72 hrs by flow cytometry analysis; type: functional, cell-based
[4] = Upregulation of NANOG mRNA expression in human Mahlavu cells at 10 uM incubated for 72 hrs by RT-qPCR analysis relative to control; type: functional
Huh-7 [5] = assay: Inhibition of cell stemness in human Huh-7 cells assessed as reduction in size of tumor spheres at 10 uM incubated for 72 hrs followed by incubation in sphere formation medium for 14 days by microscopic analysis; type: functional, cell-based; settings: time 17.0 day
Huh-7 [6] = assay: Upregulation of OCT4 mRNA expression in human Huh-7 cells at 10 uM incubated for 72 hrs by RT-qPCR analysis; type: functional, cell-based
Huh-7 [7] = assay: Inhibition of cell stemness in human Huh-7 cells assessed as reduction in size of tumor spheres at 10 uM incubated for 72 hrs followed by incubation in sphere formation medium for 7 days by microscopic analysis; type: functional, cell-based; settings: time 10.0 day
Huh-7 [8] = assay: Inhibition of cell stemness in human Huh-7 cells assessed as reduction in tumor spheres count at 10 uM incubated for 72 hrs followed by incubation in sphere formation medium for 7 days by microscopic analysis; type: functional, cell-based; settings: time 10.0 day
Huh-7 [9] = assay: Inhibition of cell stemness in human Huh-7 cells assessed as CD133+/EpCAM+ expression at 10 uM measured after 72 hrs by flow cytometry analysis (reference value: 29.92%); type: functional; parameters: scale not given: the % may be the effect or the level left
Huh-7 [10] = assay: Upregulation of NANOG mRNA expression in human Huh-7 cells at 10 uM incubated for 72 hrs by RT-qPCR analysis; type: functional, cell-based
Mahlavu [11] = assay: Upregulation of OCT4 mRNA expression in human Mahlavu cells at 10 uM incubated for 72 hrs by RT-qPCR analysis; type: functional, cell-based

IC50 (MCF7) | IC50 (Huh-7 [2]) | Structure (SMILES) | IC50 (Mahlavu [1]) | further results
0.8 µM | 0.1 µM | N#Cc1cccc(COc2ccc(-c3cc(CN4CCN(Cc5ccc(C(F)(F)F)cc5)CC4)no3)cc2)c1 | 10.6 µM | –
2.4 µM | 1.5 µM | N#Cc1cccc(COc2ccc(-c3cc(CN4CCN(c5ccc(F)cc5)CC4)no3)cc2)c1 | 2.2 µM | –
7.6 µM | 2.8 µM | N#Cc1cccc(COc2ccc(-c3cc(CN4CCN(C(=O)C5CC5)CC4)no3)cc2)c1 | 4.4 µM | –
3.5 µM | 2.9 µM | N#Cc1cccc(COc2ccc(-c3cc(CN4CCN(CC5CC5)CC4)no3)cc2)c1 | 3.2 µM | –
1.4 µM | 2.4 µM | N#Cc1cccc(COc2ccc(-c3cc(CN4CCN(Cc5ccccc5F)CC4)no3)cc2)c1 | 2.3 µM | –
1.8 µM | 1.6 µM | N#Cc1cccc(COc2ccc(-c3cc(CN4CCN(Cc5ccc(F)cc5)CC4)no3)cc2)c1 | 1.5 µM | –
2.8 µM | 1.5 µM | CC(C)(C)OC(=O)N1CCC(NCc2cc(-c3ccc(OCc4cccc(C#N)c4)cc3)on2)CC1 | 3 µM | –
2 µM | 2.2 µM | N#Cc1cccc(COc2ccc(-c3cc(CN4CCN(c5ccc(C(F)(F)F)cc5)CC4)no3)cc2)c1 | 2.7 µM | –
2.5 µM | 2.5 µM | N#Cc1cccc(COc2ccc(-c3cc(CNC4CCN(Cc5ccccc5)CC4)no3)cc2)c1 | 2.1 µM | –
1.9 µM | 2 µM | N#Cc1cccc(COc2ccc(-c3cc(CN4CCN(C(=O)c5ccco5)CC4)no3)cc2)c1 | 2.2 µM | –
2.4 µM | 2.7 µM | N#Cc1cccc(COc2ccc(-c3cc(CN4CCN(Cc5cccc(F)c5)CC4)no3)cc2)c1 | 2.6 µM | –
2.7 µM | 2.3 µM | N#Cc1cccc(COc2ccc(-c3cc(CNC4CCN(Cc5ccccc5)CC4)no3)cc2F)c1 | 2.7 µM | –
8.4 µM | 4.2 µM | N#Cc1cccc(COc2ccc(-c3cc(CN4CCN(CC5CCCO5)CC4)no3)cc2)c1 (stereo not given) | 4.8 µM | –

More lines, now with the values behind:

Structure (SMILES) | IC50 (MCF7) | IC50 (Huh-7 [2]) | IC50 (Mahlavu [1]) | further results
FC(F)(F)c1ccc(CN2CCN(Cc3cc(-c4ccc(OCc5ccccc5Cl)cc4)on3)CC2)cc1 | 2.8 µM | 1 µM | 3.2 µM | –
COc1cc(COc2ccc(-c3cc(CN4CCN(Cc5ccc(C(F)(F)F)cc5)CC4)no3)cc2)cc(OC)c1OC | 1.8 µM | 0.5 µM | 5.8 µM | –
Cc1cc(-c2cc(CN3CCN(Cc4ccc(C(F)(F)F)cc4)CC3)no2)ccc1OCc1cccc(C#N)c1 | 0.7 µM | 0.6 µM | 0.45 µM | –
Fc1cccc(COc2ccc(-c3cc(CN4CCN(Cc5ccc(C(F)(F)F)cc5)CC4)no3)cc2)c1 | 2.5 µM | 1.3 µM | 2.9 µM | –
CC(C)(C)OC(=O)N1CCN(Cc2cc(-c3ccc(OCc4cccc(C#N)c4)cc3)on2)CC1 | 3.8 µM | 6.1 µM | 5.6 µM | –
N#Cc1cccc(COc2ccc(-c3cc(CN4CCN(Cc5ccc(C(F)(F)F)cc5)CC4)no3)c(F)c2)c1 | 1.2 µM | 0.4 µM | 0.4 µM | –
Cc1ccc(COc2ccc(-c3cc(CN4CCN(Cc5ccc(C(F)(F)F)cc5)CC4)no3)cc2)cc1 | 1.2 µM | 1.5 µM | 7.5 µM | –
FC(F)(F)c1ccc(CN2CCN(Cc3cc(-c4ccc(OCc5ccc(Cl)cc5)cc4)on3)CC2)cc1 | 6.7 µM | 4 µM | 3.7 µM | –
COc1cccc(COc2ccc(-c3cc(CN4CCN(Cc5ccc(C(F)(F)F)cc5)CC4)no3)cc2)c1 | 2 µM | 0.8 µM | 1.4 µM | –
Cc1ccccc1COc1ccc(-c2cc(CN3CCN(Cc4ccc(C(F)(F)F)cc4)CC3)no2)cc1 | 3.7 µM | 1.2 µM | 6.8 µM | –
Cc1cc(C)cc(COc2ccc(-c3cc(CN4CCN(Cc5ccc(C(F)(F)F)cc5)CC4)no3)cc2)c1 | 1.6 µM | 0.6 µM | 6 µM | –
Fc1ccccc1COc1ccc(-c2cc(CN3CCN(Cc4ccc(C(F)(F)F)cc4)CC3)no2)cc1 | 3 µM | 1.5 µM | 3.1 µM | –
Fc1ccc(COc2ccc(-c3cc(CN4CCN(Cc5ccc(C(F)(F)F)cc5)CC4)no3)cc2)cc1 | 7.9 µM | 2 µM | 3.1 µM | –
Cc1cc(OCc2cccc(C#N)c2)ccc1-c1cc(CN2CCN(Cc3ccc(C(F)(F)F)cc3)CC2)no1 | 0.4 µM | 1.5 µM | 0.5 µM | –
CNC(=O)c1cc(Oc2ccc(NC(=O)Nc3ccc(Cl)c(C(F)(F)F)c3)cc2)ccn1 [SORAFENIB] | – | – | – | Activity (Mahlavu [3]): Active; fold change (FC) [4]: 10; inhibition (Huh-7 [5]): inactive; Activity (Huh-7 [6]): Active; inhibition (Huh-7 [7]): Active; inhibition (Huh-7 [8]): inactive; Activity (Huh-7 [9]): 36.16%; Activity (Huh-7 [10]): Active; Activity (Mahlavu [11]): Active
COc1ccc(COc2ccc(-c3cc(CN4CCN(Cc5ccc(C(F)(F)F)cc5)CC4)no3)cc2)cc1 | 1.3 µM | 3.2 µM | 4.9 µM | –
N#Cc1ccccc1COc1ccc(-c2cc(CN3CCN(Cc4ccc(C(F)(F)F)cc4)CC3)no2)cc1 | 4 µM | 5 µM | 3.5 µM | –
N#Cc1cccc(COc2ccc(-c3cc(CN4CCN(C(=O)C5CCCO5)CC4)no3)cc2)c1 (stereo not given) | 3.8 µM | 2.2 µM | 4.1 µM | –
N#Cc1ccc(COc2ccc(-c3cc(CN4CCN(Cc5ccc(C(F)(F)F)cc5)CC4)no3)cc2)cc1 | 0.1 µM | 1 µM | 4.3 µM | –
N#Cc1cccc(COc2ccc(-c3cc(CN4CCN(c5ccc(C(F)(F)F)cn5)CC4)no3)cc2)c1 | 1.4 µM | 1.7 µM | 1.3 µM | –
COc1ccccc1COc1ccc(-c2cc(CN3CCN(Cc4ccc(C(F)(F)F)cc4)CC3)no2)cc1 | 0.3 µM | 0.9 µM | 3.9 µM | –
Cc1cccc(COc2ccc(-c3cc(CN4CCN(Cc5ccc(C(F)(F)F)cc5)CC4)no3)cc2)c1 | 4 µM | 5 µM | 2.5 µM | –
N#Cc1cccc(COc2ccc(-c3cc(CN4CCN(C(=O)c5ccco5)CC4)no3)cc2F)c1 | 1.5 µM | 8.1 µM | 3.6 µM | –
FC(F)(F)c1ccc(CN2CCN(Cc3cc(-c4ccc(OCc5cccc(Cl)c5)cc4)on3)CC2)cc1 | 1.4 µM | 0.2 µM | 4.1 µM | –
COc1cc(COc2ccc(-c3cc(CN4CCN(Cc5ccc(C(F)(F)F)cc5)CC4)no3)cc2)cc(OC)c1 | 0.1 µM | 1.5 µM | 4.3 µM | –
